Legend:
human Chk2 kinase = human Chk2 kinase (Homo sapiens, UniProt O96017); assay: biochemical
human Chk1 kinase = target: T1, human Chk1 kinase (Homo sapiens, UniProt O14757); assay: biochemical
T1 sequence (O14757 1-476): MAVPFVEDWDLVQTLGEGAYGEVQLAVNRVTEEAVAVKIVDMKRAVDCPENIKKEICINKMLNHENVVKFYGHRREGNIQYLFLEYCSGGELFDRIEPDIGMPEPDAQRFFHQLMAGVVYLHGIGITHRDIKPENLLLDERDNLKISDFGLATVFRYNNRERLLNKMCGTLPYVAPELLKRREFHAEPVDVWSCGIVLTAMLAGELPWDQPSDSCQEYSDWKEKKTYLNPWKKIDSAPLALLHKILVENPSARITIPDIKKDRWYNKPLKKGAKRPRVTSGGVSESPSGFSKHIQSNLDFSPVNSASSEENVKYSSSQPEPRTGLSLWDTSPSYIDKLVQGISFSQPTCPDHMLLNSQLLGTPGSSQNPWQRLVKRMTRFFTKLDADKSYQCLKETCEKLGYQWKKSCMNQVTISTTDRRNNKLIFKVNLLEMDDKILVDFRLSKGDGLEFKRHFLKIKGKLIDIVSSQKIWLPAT

human Chk2 kinase, sequence (O96017 whole entry): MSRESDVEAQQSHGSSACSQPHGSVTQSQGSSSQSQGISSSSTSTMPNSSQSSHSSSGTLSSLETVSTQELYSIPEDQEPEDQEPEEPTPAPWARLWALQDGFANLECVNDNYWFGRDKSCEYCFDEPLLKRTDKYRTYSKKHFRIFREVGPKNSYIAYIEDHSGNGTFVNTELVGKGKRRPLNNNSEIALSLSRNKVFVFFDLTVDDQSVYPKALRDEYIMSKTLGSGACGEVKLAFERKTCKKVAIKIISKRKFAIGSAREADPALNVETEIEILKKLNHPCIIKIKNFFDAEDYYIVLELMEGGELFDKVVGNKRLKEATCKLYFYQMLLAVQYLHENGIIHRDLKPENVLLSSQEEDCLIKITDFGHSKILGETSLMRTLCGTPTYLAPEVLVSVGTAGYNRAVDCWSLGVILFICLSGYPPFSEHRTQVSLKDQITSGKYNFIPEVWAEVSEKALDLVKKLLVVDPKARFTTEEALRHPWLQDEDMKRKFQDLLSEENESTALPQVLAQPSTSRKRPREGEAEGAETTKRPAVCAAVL

SMILES	IC50 (human Chk2 kinase) [nM]	IC50 (human Chk1 kinase) [nM]
COc1cc(CN2CCCC2)ccc1-n1cnc(Nc2cnc(C#N)cn2)c1 [Example 171, 5-((1-(2-Methoxy-4-(pyrrolidin-1-ylmethyl)phenyl)-1H-imidazol-4-yl)amino)pyrazine-2-carbonitrile]	10000 to 100000	10 to 31.6
CN1C[C@@H](F)[C@@H](OCc2ccc(-n3cnc(Nc4cnc(C#N)cn4)c3)cc2)C1 [Example 146, 5-((1-(4-((((3S,4R)-4-fluoro-1-Methylpyrrolidin-3-yl)oxy)methyl)phenyl)-1H-imidazol-4-yl)amino)pyrazine-2-carbonitrile]	10000 to 100000	31.6 to 100
C[C@@H]1CCN1C1CCN(c2ccc(-n3cnc(Nc4cnc(C#N)cn4)c3)cc2)C1 (single isomer, unassigned) [Example 136]	> 100000	31.6 to 100
CN(C)CC1CCN(c2ccc(-n3cnc(Nc4cnc(C#N)cn4)c3)cc2)C1 (single isomer, unassigned) [Example 115, 5-((1-(4-(3-((Dimethylamino)methyl)pyrrolidin-1-yl)phenyl)-1H-imidazol-4-yl)amino)pyrazine-2-carbonitrile]	–	31.6 to 100
CN(C)C1CN(c2ccc(-n3cnc(Nc4cnc(C#N)cn4)c3)cc2)C1 [Example 32, 5-((1-(4-(3-(Dimethylamino)azetidin-1-yl)phenyl)-1H-imidazol-4-yl)amino)pyrazine-2-carbonitrile]	> 100000	< 10
CN1CCCC12CN(c1cccc(-n3cnc(Nc4cnc(C#N)cn4)c3)c1)C2 [Example 34, 5-((1-(3-(5-Methyl-2,5-diazaspiro[3.4]octan-2-yl)phenyl)-1H-imidazol-4-yl)amino)pyrazine-2-carbonitrile]	10000 to 100000	10 to 31.6
CN1C[C@H](F)[C@H](Oc2cccc(-n3cnc(Nc4cnc(C#N)cn4)c3)c2)C1 [Example 56, 5-((1-(3-(((3R,4S)-4-fluoro-1-methylpyrrolidin-3-yl)oxy)phenyl)-1H-imidazol-4-yl)amino)pyrazine-2-carbonitrile]	10000 to 100000	100 to 316
CN1CC2(C1)CN(c1ccc(-n3cnc(Nc4cnc(C#N)cn4)c3)cc1)C2 [Example 11, 5-((1-(4-(6-Methyl-2,6-diazaspiro[3.3]heptan-2-yl)phenyl)-1H-imidazol-4-yl)amino)pyrazine-2-carbonitrile]	–	10 to 31.6
CN(C)[C@H]1CCN(c2ccc(-n3cnc(Nc4cnc(C#N)cn4)c3)cc2)C1 [Example 15, (S)-5-((1-(4-(3-(Dimethylamino)pyrrolidin-1-yl)phenyl)-1H-imidazol-4-yl)amino)pyrazine-2-carbonitrile]	–	31.6 to 100
CN[C@H]1CN(c2ccc(-n3cnc(Nc4cnc(C#N)cn4)c3)cc2)C[C@H]1OC [Example 163, 5-((1-(4-((3R,4S)-3-Methoxy-4-(methylamino)pyrrolidin-1-yl)phenyl)-1H-imidazol-4-yl)amino)pyrazine-2-carbonitrile]	–	10 to 31.6
N#Cc1cnc(Nc2cn(-c3ccc(N4CC[C@@H](N5CCCC5)C4)cc3)cn2)cn1 [Example 147, (R)-5-((1-(4-([1,3′-Bipyrrolidin]-1′-yl)phenyl)-1H-imidazol-4-yl)amino)pyrazine-2-carbonitrile]	–	10 to 31.6
Cc1cc(N2CCN(C)CC2)ccc1-n1cnc(Nc2cnc(C#N)cn2)c1 [Example 145, 5-((1-(2-methyl-4-(4-Methylpiperazin-1-yl)phenyl)-1H-imidazol-4-yl)amino)pyrazine-2-carbonitrile]	–	316 to 1000
CN1CCN(C(=O)c2ccc(-n3cnc(Nc4cnc(C#N)cn4)c3)cc2)CC1 [Example 144, 5-((1-(4-(4-Methylpiperazine-1-carbonyl)phenyl)-1H-imidazol-4-yl)amino)pyrazine-2-carbonitrile]	–	100 to 316
CCN1CCN(c2ccc(-n3cnc(Nc4cnc(C#N)cn4)c3)cc2)CC1 [Example 185, 5-((1-(4-(4-Ethylpiperazin-1-yl)phenyl)-1H-imidazol-4-yl)amino)pyrazine-2-carbonitrile]	–	10 to 31.6

From patent US20260132140A1, “IMIDAZOLYL-AMINO-PYRAZINE-CARBONITRILS AS CHK-1 INHIBITORS” (BenevolentAI Bio Limited, priority 2022, published 2026)
